Experimental data taken from US20090149472A1, “SALTS OF SUBSTITUTTED PYRAZOLINE COMPOUNDS, THEIR PREPARATION AND USE AND MEDICAMENTS” (Laboratorios Del Dr. Esteve, S.A., priority 2005, published 2009).
Where two headings read alike, the source gives them in different places. Blank lines part the entries; values can stand above or below the compound they belong to.

Assays:
[1] = target: CB1-Receptor (Homo sapiens, UniProt P21554); test: CB1 receptor binding, radioligand [3H]-SR141716A (Table Ia)
Chain of CB1-Receptor (P21554 whole entry): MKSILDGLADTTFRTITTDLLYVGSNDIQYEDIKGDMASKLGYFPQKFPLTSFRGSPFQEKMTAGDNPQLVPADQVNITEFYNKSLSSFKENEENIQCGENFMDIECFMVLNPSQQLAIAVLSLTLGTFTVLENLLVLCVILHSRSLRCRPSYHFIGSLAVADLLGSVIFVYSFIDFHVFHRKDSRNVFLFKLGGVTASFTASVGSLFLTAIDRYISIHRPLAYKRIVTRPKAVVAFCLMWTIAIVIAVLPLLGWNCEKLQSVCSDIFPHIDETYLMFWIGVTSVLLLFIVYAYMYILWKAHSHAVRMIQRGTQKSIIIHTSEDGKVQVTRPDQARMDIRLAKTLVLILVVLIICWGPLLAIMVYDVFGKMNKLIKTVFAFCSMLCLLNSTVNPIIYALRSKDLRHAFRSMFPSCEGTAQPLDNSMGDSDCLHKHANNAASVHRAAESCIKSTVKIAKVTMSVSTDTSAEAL

[2] = test system: male NMRI mice; test: Mouse tetrad model, agonistic effect; format: in vivo; set-up: key to Agonistic effect D: Sedation: % of sedation = mean score (0–3 scale) / 3 × 100; Agonistic effect A: Hot-Plate test / Agonistic effect B: Hypothermia / Agonistic effect C: Catalepsy: unit not given here; conditions: 5 mg/kg i.v.
Description: (§1) Substances with affinity for cannabinoid receptors are known to produce a wide range of pharmacological effects. It is also known that intravenous administration of a substance with affinity for cannabinoid receptors in mice produces analgesia, hypothermia, sedation and catalepsy. Individually, none of these effects can be considered as proof that a tested substance has affinity for cannabinoid-receptors, since all of these effects are common for various classes of centrally active agents. However, substances, which show all of these effects, i.e. substances that are active in this so-called tetrad model are considered to have affinity for the cannabinoid receptors.
(§2) The tetrad model is described, for example, in the publication of A. C. Howlett et al, International Union of Pharmacology XXVII. Classification of Cannabinoid Receptors, Pharmacol Rev 54, 161-202, 2002 and David R. Compton et al., “In-vivo Characterization of a Specific Cannabinoid Receptor Antagonist (SR141716A):Inhibition of Tetrahydrocannbinol-induced Responses and Apparent Agonist Activity”, J. Pharmacol. Exp. Ther. 277, 2, 586-594, 1996. The corresponding parts of the description are hereby incorporated by reference.
(§3) Male NMRI mice with a weight of 20-30 g (Harlan, Barcelona, Spain) are used in all of the following experiments.
(§4) Before testing in the behavioral procedures given below, mice are acclimatized to the experimental setting. Pre-Treatment control values are determined for analgesia hot plate latency (in seconds), rectal temperature, sedation and catalepsy.
In order to determine the agonistic activity of the substance to be tested, the mice are injected intravenously with the substance to be tested or the vehicle alone. 15 minutes after injection, latency in hot plate analgesia is measured. Rectal temperature, sedation and catalepsy are measured 20 minutes after injection.
(§5) The hot plate analgesia is determined according to the method described in Woolfe D. et al. “The evaluation of analgesic action of pethidine hydrochloride (Demerol)”, J. Pharmacol. Exp. Ther. 80, 300-307, 1944. The respective description is hereby incorporated by reference and forms part of the present disclosure.
(§6) The mice are placed on a hot plate (Harvard Analgesimeter) at 55±0.5° C. until they show a painful sensation by licking their paws or jumping and the time for these sensations to occur is recorded. This reading is considered the basal value (B). The maximum time limit the mice are allowed to remain on the hot plate in absence of any painful response is 40 seconds in order to prevent skin damage. This period is called the cut-off time (PC).
(§7) Fifteen minutes after the administration of the substance to be tested, the mice are again placed on the hot plate and the afore described procedure is repeated. This period is called the post-treatment reading (PT).
(§8) The degree of analgesia is calculated from the formula:
(§9) % MPE of Analgesia=(PT−B)/(PC−B)×100
(§10) Sedation and ataxia is determined according to the method described in Desmet L. K. C. et al. “Anticonvulsive properties of Cinarizine and Flunarizine in Rats and Mice”, Arzneim.-Forsch. (Frug Res) 25, 9, 1975. The respective description is hereby incorporated by reference and forms part of the present disclosure.
(§11) The chosen scoring system is
(§12) 0: no ataxia; 1: doubtful; 2: obvious calmness and quiet; 3 pronounced ataxia; prior to as well as after treatment.
(§13) The percentage of sedation is determined according to the formula:
(§14) % of sedation=arithmetic mean/3×100
(§15) Hypothermia is determined according to the method described in David R. Compton et al. “In-vivo Characterization of a Specific Cannabinoid Receptor Antagonist (SR141716A) Inhibition of Tetrahydrocannbinol-induced Responses and Apparent Agonist Activity”, J. Pharmacol Exp Ther. 277, 2, 586-594, 1996. The respective description is hereby incorporated by reference and forms part of the present disclosure. […]

[3] = target: T1, transfected human CB2 receptor (Homo sapiens, UniProt P34972); test: In-vitro affinity to CB2 receptor, radioligand [3H]-CP55940; format: binding
T1 construct: purchased Receptor Biology, Inc
T1 sequence (P34972 whole entry): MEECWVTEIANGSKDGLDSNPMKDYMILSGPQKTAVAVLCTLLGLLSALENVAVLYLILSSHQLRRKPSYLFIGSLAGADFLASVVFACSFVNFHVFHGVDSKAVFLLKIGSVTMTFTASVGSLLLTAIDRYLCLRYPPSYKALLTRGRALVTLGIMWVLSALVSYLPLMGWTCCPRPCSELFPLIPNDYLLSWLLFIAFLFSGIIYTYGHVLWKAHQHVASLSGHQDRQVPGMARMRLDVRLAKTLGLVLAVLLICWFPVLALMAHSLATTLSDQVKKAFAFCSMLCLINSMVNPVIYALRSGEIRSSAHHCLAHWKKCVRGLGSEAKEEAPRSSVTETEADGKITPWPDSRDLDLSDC
Protocol: (§16) The in-vitro determination of the affinity of the inventive substituted pyrazoline compounds to CB1/CB2-Rezeptors is carried out as described in the publication of Ruth A. Ross, Heather C. Brockie et al., “Agonist-inverse agonist characterization at CB1 and CB2 cannabinoid receptors of L-759633, L759656 and AM630”, British Journal of Pharmacology, 126, 665-672, (1999), whereby the transfected human CB1 and CB2 receptors of Receptor Biology, Inc. are used. The radioligand used for both receptors is [^3H]-CP55940. The respective parts of the description is hereby incorporated by reference and forms part of the present disclosure.
(§17) The affinity of the inventive substituted pyrazoline compounds to CB1/CB2 receptors was determined as described above.

[4] = test system: rats; test: In-vivo testing for antiobesic activity; set-up: species or system rat
Protocol: The in-vivo testing for antiobesic activity of the inventive pyrazoline compounds is carried out as described in the publication of G. Colombo et al., “Appetite Suppression and Weight Loss after the Cannabinoid Antagonist SR 141716”; Life Sciences, 63 (8), 113-117, (1998). The respective part of the description is hereby incorporated by reference and forms part of the present disclosure.
The in-vivo testing for antiobesic activity was carried out as described above, whereby four different groups of 10 rats each were treated as follows:
The second group of rats was treated with the inventive compound N-piperidinyl-5-(4-chlorophenyl)-1-(2,4-dichlorophenyl)-4,5-dihydropyrazole-3-carboxamide according to Example 1. Said compound was administered intraperitoneally to the rats over a period of 14 days in a daily dosis of (10 mg/kg body weight).

[5] = target: T2, transfected human CB1 receptor (Homo sapiens, UniProt P21554); test: In-vitro affinity to CB1 receptor, radioligand [3H]-CP55940; format: binding
T2 construct: purchased Receptor Biology, Inc
T2 sequence (P21554 whole entry): as the sequence (P21554 whole entry) above
Protocol: as §16, §17

[6] = test system: male NMRI mice; test: Mouse tetrad model, antagonistic effect against Win 55212-2; format: in vivo; set-up: unit not given here; conditions: 5 mg/kg i.v. prior to Win 55212-2 1.25 mg/kg i.v.
Description: as §1, §2, §3, §4
In order to determine the antagonistic activity the identical procedure is used as for the determination of the agonistic effects, but with the difference that the substance to be evaluated for its antagonistic activity is injected 5 minutes before the intravenous injection of 1.25 mg/kg Win-55,212 a known cannabinoid-receptor agonist.
as §5, §6, §7, §8, §9, §10, §11, §12, §13, §14, §15

[7] = In-vivo antidepressant activity, water despair test
Protocol: The in-vivo testing for antidepressant activity of the inventive pyrazoline compounds in the water despair test is carried out as described in the publication of E. T. Tzavara et al., “The CB1 receptor antagonist SR141716A selectively increases monoaminergic neurotransmission in the medial prefrontal cortex: implications for therapeutic actons”; Br. J. Pharmacol. 2003, 138(4):544:53. The respective part of the description is hereby incorporated by reference and forms part of the present disclosure.
The in-vivo testing for antidepressant activity of the inventive pyrazoline compounds in the water despair test was carried out as described above.

[8] = read-out: CB1-Receptor Radioligand: [3H]-SR141716A % Inhibition 10^-7 M

Compound: O=C(NN1CCCCC1)C1=NN(c2ccc(Cl)cc2Cl)C(c2ccc(Cl)cc2)C1 (stereo not drawn) [drawing 82]
inhibition at 0.1 µM ([1]; read-out: CB1-Receptor Radioligand: [3H]-SR141716A % Inhibition 10^-7 M, 10^-7 M, [3H]-SR141716A): 82.6%

Compound: O=C(NN1CCCCC1)C1=NN(c2ccc(Cl)cc2Cl)C(c2ccc(Cl)cc2)C1 (stereo not drawn) [Example 1, N-piperidinyl-5-(4-chlorophenyl)-1-(2,4-dichlorophenyl)-4,5-dihydro-1H-pyrazole-3-carboxamide]
Agonistic effect A: Hot-Plate test [2]: 0
Agonistic effect B: Hypothermia [2]: 0
Agonistic effect C: Catalepsy [2]: 0
Agonistic effect D: Sedation [2]: 0
Ki [3]: > 1000 nM
body weight ([4]; 10 mg/kg daily intraperitoneally over 14 days (FIG. 1)): lowered
food intake ([4]; 10 mg/kg daily intraperitoneally over 14 days (FIG. 2)): reduction
body weight effect after the treatment is ended ([4]; after end of 14 days of 10 mg/kg daily i.p. (FIG. 1)): also observed after the treatment is ended
Ki [5]: < 25 nM
Antagonistic Effect A: Hot-Plate test [6]: 74
Antagonistic Effect B: Hypothermia [6]: 100
Antagonistic Effect C: Catalepsy [6]: 100
Antagonistic Effect D: Sedation [6]: 100
immobility time and struggling time [7]: positive effects

melting point: 150 to 155 °C
Compound: CN1CCN(NC(=O)C2=NN(c3ccc(Cl)cc3Cl)C(c3ccc(Cl)cc3)C2)CC1.Cl (stereo not drawn)

Compound: O=C(NN1CCCCC1)C1=NN(c2ccc(Cl)cc2Cl)C(c2ccc(Cl)cc2)C1 (stereo not drawn) [drawing 84]
inhibition at 0.1 µM [1, 8]: 99.7%

Compound: O=C(NN1CCCCC1)C1=NN(c2ccc(Cl)cc2Cl)[C@@H](c2ccc(Cl)cc2)C1
inhibition at 0.1 µM [1, 8]: 83.3%

Compound: O=C(NN1CCCCC1)C1=NN(c2ccc(Cl)cc2Cl)C(c2ccc(Cl)cc2)C1.O=[N+]([O-])O (stereo not drawn)
CB1-Receptor Radioligand: [3H]-SR141716A % Inhibition 10^-7 M ([1]; 10^-7 M, [3H]-SR141716A): 83.6%

melting point: 134 to 138 °C
Compound: O=C(Nn1cnnc1)C1=NN(c2ccc(Cl)cc2Cl)C(c2ccc(Cl)cc2)C1 (stereo not drawn)

Compound: O=C(C1=NN(c2ccc(Cl)cc2Cl)C(c2ccc(Cl)cc2)C1)N1CCCCC1 (stereo not drawn) [Example 5, [5-(4-Chloro-phenyl)-1-(2,4-dichloro-phenyl)-4,5-dihydro-1H-pyrazol-3-yl]-piperidin-1-yl-methanone]
Agonistic effect A: Hot-Plate test [2]: 0
Agonistic effect B: Hypothermia [2]: 50
Agonistic effect C: Catalepsy [2]: 0
Agonistic effect D: Sedation [2]: 0
Antagonistic Effect A: Hot-Plate test [6]: 50
Antagonistic Effect B: Hypothermia [6]: 40
Antagonistic Effect C: Catalepsy [6]: 20
Antagonistic Effect D: Sedation [6]: 20
melting point: 105 to 110 °C

Compound: O=C(NN1CCCCC1)C1=NC(c2ccc(Cl)cc2Cl)[C@@H](c2ccc(Cl)cc2)C1 (stereo partly drawn)
inhibition at 0.1 µM ([1]; 10^-7 M, [3H]-SR141716A, read-out: CB1-Receptor Radioligand: [3H]-SR141716A % Inhibition 10^-7 M): 82.7%
